Tested on: pancreatin enzyme (Sigma)
Assay: Stability with respect to pancreatic enzymes
Type: in vitro ADME
Details: 1% solution, 0.2% pancreatin, pH 7.0, 210 min at 37° C.
Protocol: The pancreatic secretion contains a large number of hydrolases, including carbohydrate-degrading enzymes like α-amylase, which breaks down α-1,4-glucans (starch, glycogen) preferably to maltose and maltooligosaccharides. The test of the stability of saccharides with respect to pancreatic enzymes is carried out as follows.
3.0 mL of a carbohydrate solution (solution 2 to solution 6) is mixed with 0.1 mL of the enzyme solution (solution 7) per batch:
Solution 1: 20 mmol/L Na phosphate buffer, pH 7.0, with 6 mmol/L NaCl
Solution 2: 1% solution of β-1,4-galactosyl isomalt mixture in accordance with the invention, prepared according to Example 2 and Example 4, in solution 1
Solution 3: 1% solution of β-1,3-galactosyl isomalt mixture in accordance with the invention, prepared according to Example 1 and Example 4, in solution 1
Solution 4: 1% solution of β-1,6-galactosyl isomalt mixture in accordance with the invention; prepared according to Example 3 and Example 4, in solution 1
Solution 6: 1% starch solution (soluble starch, according to Zulkowski), in solution 1
Solution 7: 0.2% pancreatin enzyme (Sigma), dissolved in solution 1
After 210 min incubation in a thermomixer (interval shaking) at 37° C., the reaction is stopped by heating to 95° C. for 15 min and the samples are analyzed by HPAEC. The starch-containing sample (solution6+solution 7) is completely hydrolyzed before the HPAEC analysis by heating for 3 h in 1 mol/L hydrochloric acid at 95° C., and the glucose resulting from this is determined in order to calculate the starch content of the sample.

## OCC1O[C@H](OC[C@@H](O)[C@@H](O)[C@H](O)C(O)CO)C(O)C(O[C@@H]2OC(CO)[C@H](O)C(O)C2O)[C@@H]1O (mixture of isomers) [β-1,3-Galactosyl isomalt, β-D-galactosyl-(1→3)-α-D-glucosyl-(1→6)-D-sorbitol(β-1,3-galactosyl-1,6-GPS) and β-D-galactosyl-(1→3)-α-D-glucosyl-(1→1)-D-mannitol(β-1,3-galactosyl-1,1-GPM)]
  Decomposition rate [%]: <1%

Source: US20060008574A1, “Galactosyl isomalt, method for production and use thereof” (priority 2002, published 2006)
